Assay results as given in ChEMBL document CHEMBL1201862, “PubChem BioAssay data set” (2004).
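Method: 48-hour compound exposure of cells in 96-well plates, five concentrations, linear interpolation of endpoints. GI50 marks 50% less growth.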 Activity calls are given as the source filed them. Cut-off read from the data, not from the text of the source: active = GI50 up to about 1.1 µM and inactive = higher.

Key:
Assay in all cases: NCI tumour cell line growth inhibition, 48 h
[1] = tested on: 786-0
[2] = tested on: A498
[3] = tested on: A549
[4] = tested on: ACHN
[5] = tested on: BT-549
[6] = tested on: CAKI-1
[7] = tested on: CCRF-CEM
[8] = tested on: COLO 205
[9] = tested on: DU-145
[10] = tested on: EKVX
[11] = tested on: HCC 2998
[12] = tested on: HCT-116
[13] = tested on: HCT-15
[14] = tested on: HL-60
[15] = tested on: HOP-92
[16] = tested on: HT-29
[17] = tested on: Hs-578T
[18] = tested on: IGROV-1
[19] = tested on: K562
[20] = tested on: KM12
[21] = tested on: LOX IMVI
[22] = tested on: M14
[23] = tested on: MCF7
[24] = tested on: MDA-MB-231
[25] = tested on: MDA-MB-435
[26] = tested on: MOLT-4
[27] = tested on: Malme-3M
[28] = tested on: NCI-H226
[29] = tested on: NCI-H23
[30] = tested on: NCI-H460
[31] = tested on: NCI-H522
[32] = tested on: NCI/ADR-RES
[33] = tested on: OVCAR-4
[34] = tested on: OVCAR-5
[35] = tested on: OVCAR-8
[36] = tested on: PC-3
[37] = tested on: SF-268
[38] = tested on: SF-295
[39] = tested on: SF-539
[40] = tested on: SK-MEL-28
[41] = tested on: SK-MEL-2
[42] = tested on: SK-MEL-5
[43] = tested on: SK-OV-3
[44] = tested on: SN12C
[45] = tested on: SNB-19
[46] = tested on: SR
[47] = tested on: SW-620
[48] = tested on: T47D
[49] = tested on: TK-10
[50] = tested on: U-251
[51] = tested on: UACC-257
[52] = tested on: UACC-62
[53] = tested on: UO-31
[54] = tested on: HOP-62
[55] = tested on: OVCAR-3
[56] = tested on: RPMI-8226
[57] = tested on: RXF 393
[58] = tested on: SNB-75

CC1(O)CC23CC(O)C4(O)C(CC(O)C4(C)C)C(C)(O)C2CCC1C3O (stereo not drawn)
GI50 [1]: > 100 µM (inactive)
GI50 [2]: > 100 µM (inactive)
GI50 [3]: > 100 µM (inactive)
GI50 [4]: > 100 µM (inactive)
GI50 [5]: > 100 µM (inactive)
GI50 [6]: > 100 µM (inactive)
GI50 [7]: > 100 µM (inactive)
GI50 [8]: > 100 µM (inactive)
GI50 [9]: > 100 µM (inactive)
GI50 [10]: > 100 µM (inactive)
GI50 [11]: > 100 µM (inactive)
GI50 [12]: > 100 µM (inactive)
GI50 [13]: > 100 µM
GI50 [14]: > 100 µM (inactive)
GI50 [15]: > 100 µM (inactive)
GI50 [16]: > 100 µM (inactive)
GI50 [17]: > 100 µM (inactive)
GI50 [18]: > 100 µM (inactive)
GI50 [19]: > 100 µM (inactive)
GI50 [20]: > 100 µM (inactive)
GI50 [21]: > 100 µM (inactive)
GI50 [22]: > 100 µM (inactive)
GI50 [23]: > 100 µM (inactive)
GI50 [24]: > 100 µM (inactive)
GI50 [25]: > 100 µM (inactive)
GI50 [26]: > 100 µM (inactive)
GI50 [27]: > 100 µM (inactive)
GI50 [28]: > 100 µM (inactive)
GI50 [29]: > 100 µM (inactive)
GI50 [30]: > 100 µM (inactive)
GI50 [31]: > 100 µM (inactive)
GI50 [32]: > 100 µM (inactive)
GI50 [33]: > 100 µM (inactive)
GI50 [34]: > 100 µM (inactive)
GI50 [35]: > 100 µM (inactive)
GI50 [36]: > 100 µM (inactive)
GI50 [37]: > 100 µM (inactive)
GI50 [38]: > 100 µM (inactive)
GI50 [39]: > 100 µM (inactive)
GI50 [40]: > 100 µM (inactive)
GI50 [41]: > 100 µM (inactive)
GI50 [42]: > 100 µM (inactive)
GI50 [43]: > 100 µM (inactive)
GI50 [44]: > 100 µM (inactive)
GI50 [45]: > 100 µM (inactive)
GI50 [46]: > 100 µM (inactive)
GI50 [47]: > 100 µM (inactive)
GI50 [48]: > 100 µM (inactive)
GI50 [49]: > 100 µM (inactive)
GI50 [50]: > 100 µM (inactive)
GI50 [51]: > 100 µM (inactive)
GI50 [52]: > 100 µM (inactive)
GI50 [53]: > 100 µM (inactive)

CC12CP(=O)(O)CC1C2(Cl)Cl (stereo not drawn)
GI50 [1]: > 100 µM (inactive)
GI50 [2]: > 100 µM (inactive)
GI50 [3]: > 100 µM (inactive)
GI50 [4]: > 100 µM (inactive)
GI50 [5]: > 100 µM (inactive)
GI50 [6]: > 100 µM (inactive)
GI50 [7]: > 100 µM (inactive)
GI50 [8]: > 100 µM (inactive)
GI50 [9]: > 100 µM (inactive)
GI50 [10]: > 100 µM (inactive)
GI50 [11]: > 100 µM (inactive)
GI50 [12]: > 100 µM (inactive)
GI50 [13]: > 100 µM
GI50 [14]: > 100 µM (inactive)
GI50 [54]: > 100 µM (inactive)
GI50 [15]: > 100 µM (inactive)
GI50 [16]: > 100 µM (inactive)
GI50 [17]: > 100 µM (inactive)
GI50 [18]: > 100 µM (inactive)
GI50 [19]: > 100 µM (inactive)
GI50 [20]: > 100 µM (inactive)
GI50 [21]: > 100 µM (inactive)
GI50 [22]: > 100 µM (inactive)
GI50 [23]: > 100 µM (inactive)
GI50 [24]: > 100 µM (inactive)
GI50 [25]: > 100 µM (inactive)
GI50 [26]: > 100 µM (inactive)
GI50 [27]: > 100 µM (inactive)
GI50 [28]: > 100 µM (inactive)
GI50 [29]: > 100 µM (inactive)
GI50 [30]: > 100 µM (inactive)
GI50 [31]: > 100 µM (inactive)
GI50 [32]: > 100 µM (inactive)
GI50 [55]: > 100 µM (inactive)
GI50 [33]: > 100 µM (inactive)
GI50 [34]: > 100 µM (inactive)
GI50 [35]: > 100 µM (inactive)
GI50 [36]: > 100 µM (inactive)
GI50 [56]: > 100 µM (inactive)
GI50 [57]: > 100 µM (inactive)
GI50 [37]: > 100 µM (inactive)
GI50 [38]: > 100 µM (inactive)
GI50 [39]: > 100 µM (inactive)
GI50 [40]: > 100 µM (inactive)
GI50 [41]: > 100 µM (inactive)
GI50 [42]: > 100 µM (inactive)
GI50 [43]: > 100 µM (inactive)
GI50 [44]: > 100 µM (inactive)
GI50 [45]: > 100 µM (inactive)
GI50 [58]: > 100 µM (inactive)
GI50 [46]: > 100 µM (inactive)
GI50 [47]: > 100 µM (inactive)
GI50 [48]: > 100 µM (inactive)
GI50 [49]: > 100 µM (inactive)
GI50 [50]: > 100 µM (inactive)
GI50 [51]: > 100 µM (inactive)
GI50 [52]: > 100 µM (inactive)
GI50 [53]: 50.6 µM (inactive)

C/C=C/[C@H]1O[C@@](O)([C@@H](C)[C@H](O)[C@H](C)[C@H]2OC(=O)/C(OC)=C/C(C)=C/[C@@H](C)[C@@H](O)[C@@H](CC)[C@@H](O)[C@H](C)C/C(C)=C/C=C/[C@@H]2OC)C[C@H](OC2CC(O)C(OC(N)=O)C(C)O2)[C@@H]1C (stereo partly drawn)
GI50 [1]: 0.0183 µM (active)
GI50 [2]: 18.8 µM (inactive)
GI50 [3]: < 0.0181 µM (active)
GI50 [4]: 0.0286 µM (active)
GI50 [5]: 0.0843 µM (active)
GI50 [6]: 0.0532 µM (active)
GI50 [7]: < 0.01 µM (active)
GI50 [8]: 0.0334 µM (active)
GI50 [9]: 0.914 µM (active)
GI50 [10]: 0.0719 µM (active)
GI50 [11]: 0.0787 µM (active)
GI50 [12]: 0.017 µM (active)
GI50 [13]: 0.0426 µM
GI50 [14]: < 0.01 µM (active)
GI50 [54]: < 0.0249 µM (active)
GI50 [16]: < 0.01 µM (active)
GI50 [17]: 12.4 µM (inactive)
GI50 [18]: 0.0458 µM (active)
GI50 [19]: 0.024 µM (active)
GI50 [20]: < 0.0163 µM (active)
GI50 [21]: < 0.01 µM (active)
GI50 [22]: < 0.0161 µM (active)
GI50 [23]: 0.0293 µM (active)
GI50 [24]: 0.678 µM (active)
GI50 [25]: 0.0275 µM (active)
GI50 [26]: < 0.01 µM (active)
GI50 [27]: 0.122 µM (active)
GI50 [28]: 0.0336 µM (active)
GI50 [29]: 7.13 µM (inactive)
GI50 [30]: < 0.0111 µM (active)
GI50 [31]: 0.0399 µM (active)
GI50 [32]: 0.759 µM (active)
GI50 [55]: < 0.0181 µM (active)
GI50 [33]: 0.0791 µM (active)
GI50 [34]: 11.9 µM (inactive)
GI50 [35]: 0.0474 µM (active)
GI50 [36]: < 0.01 µM (active)
GI50 [56]: < 0.0157 µM (active)
GI50 [57]: 8.87 µM (inactive)
GI50 [37]: 0.0447 µM (active)
GI50 [38]: 0.0248 µM (active)
GI50 [39]: 0.0224 µM (active)
GI50 [40]: 0.74 µM (active)
GI50 [41]: 0.0195 µM (active)
GI50 [42]: 0.0142 µM (active)
GI50 [43]: 12.8 µM (inactive)
GI50 [44]: 5.65 µM (inactive)
GI50 [45]: 8.22 µM (inactive)
GI50 [58]: 0.525 µM (active)
GI50 [46]: < 0.01 µM (active)
GI50 [47]: < 0.022 µM (active)
GI50 [48]: 0.0333 µM (active)
GI50 [49]: 17.3 µM (inactive)
GI50 [50]: < 0.0281 µM (active)
GI50 [51]: 0.0641 µM (active)
GI50 [52]: 0.0231 µM (active)
GI50 [53]: 0.0479 µM (active)
